Data set [1] is classed as physicochemical. On the procedure: Samples of the compound represented by formula (I) and acetate, hydrochloride, citrate and phosphate of the compound represented by formula (I) were respectively placed open and evenly spread, so that the stability of the samples were investigated under the conditions of room temperature, heating (40° C., 60° C.), illumination (4500Lux) and high humidity (RH75% and RH90%). The sampling period is 20 days.

The format of data set [2] is physicochemical. Conditions: for Long-term stability (conclusion in words): with/without nitrogen protection, amorphous samples. On the procedure: Samples of acetate, hydrochloride, citrate and phosphate of the compound represented by formula (I) were subjected to a long-term accelerated stability investigation for 6 months under dark and sealed conditions (the inner package is a medicinal low-density polyethylene composite film and the outer package is aluminum foil), humidity (60% RH), temperature (4° C., 25° C.) and with/without nitrogen protection.

Data set [3] can be described thus: Canine pharmacokinetic test, intravenous administration. Type of data set: in vivo. Conditions: Beagle dogs. The source says:
Beagle dogs were used as test animals, and LC/MS/MS methods were used to determine the drug concentration in plasma of Beagle dogs at different time points after intravenous administration of the compound represented by formula (I). To study the pharmacokinetic behavior of the compound of the present invention in Beagle dogs and evaluate its pharmacokinetic characteristics.
3 male beagle dogs provided by Medicilon Pharmaceutical Technology (Shanghai) Co, Ltd in each group.
A proper amount of sample was weighted and 100% normal saline was added for dissolution.
Beagle dogs 3, male, for one group; intravenous administration with a volume of 2 ml/kg after fasting for one night.
For the intravenous administration group, 1.0 ml of blood was collected from jugular vein before and 5 mins, 15 mins, 0.5, 1.0, 2.0, 4.0, 8.0, 12.0, 24.0 hrs after administration, then placed in a heparinized test tube, centrifuged at 3500 rpm for 10 mins to separate plasma, and stored at −80° C.
LC/MS/MS method was used to determine the content of compound in Beagle dog plasma after intravenous administration.

Data set [4] concerns inflammatory pain induced by carrageenan in rats. Description: Carrageenan inflammatory pain model, plantar tenderness (Electronic Von Frey). The format is in vivo, Wistar rats. Conditions: for tenderness threshold: 30 min before test, model group 7.6 g. On the procedure:
Male Wistar rats for experiment purchased from Shanghai Slack Experimental Animal Co, Ltd. (Shanghai, China, certificate No. 2015000513408, license SOCK (Shanghai) 2012-0002, 150-180 g at the time of purchase, 5 rats/cage, 12/12 hour light/dark cycle adjustment, constant temperature of 23±1° C., humidity of 50-60%, free intake of water. After the animals were purchased, they were reared for more than 7 days to start the experiment.
1% λ-carrageenan mixed with physiological saline and stirred overnight, forming a jelly suspension.
The experimental method was improved according to the method in document 1 (Kazunari Nakao et al.). Before the inflammatory pain experiment, rats were randomly divided into the following groups according to body weight: blank control group, model group, 0.1 mg/kg group and 0.3 mg/kg group. There were 8 rats in each group. Inflammatory pain model was established by subcutaneous injection of 1% carrageenan (100 μl) into the foot pad of Wistar rats. After 4 hours, the rats were tested for plantar tenderness to evaluate their mechanical pain threshold, the rats were administrated single caudal vein administration (1 ml/kg) 30 min before the test, and the control group and model group were given the corresponding solvents.
Electronic Von Frey: UGO BASILE, type 38450.
The experimental data were expressed by Mean±standard deviation (S.D.). Statistical comparison was carried out with Excel software T test.

The nature of data set [5]: Solubility (salt formation research). Type of data set: physicochemical.
The mark [6] stands for this setting: 25° C., 60% RH, nitrogen protection, 1 month.
[7] abbreviates: 25° C., 60% RH, nitrogen protection, 3 months.
Where [8] appears, read: 25° C., 60% RH, nitrogen protection, 6 months.
Setting [9] is: 25° C., 60% RH, nitrogen protection, initial.
The mark [10] stands for this setting: 6 months, 4° C., 25° C., 60% RH.

Like-named read-outs stand apart in the source and are kept apart here. Where a SMILES comes first, the peptide text is derived from it. [ ]: non-standard residue; d: D form. The star is where a group is joined. Gly(N-(2R-Ph-propyl)) = C[C@@H](CNCC(=O)O)c1ccccc1; Piperidin1yl(4-NH2,4-COOH) = NC1(C(=O)O)CCN(*)CC1

As to `CC(C)C[C@@H](NC(=O)[C@@H](Cc1ccccc1)NC(=O)CNC[C@H](C)c1ccccc1)C(=O)N[C@H](CCCCN)C(=O)N1CCC(N)(C(=O)O)CC1` [Embodiment 15, 4-amino-1-((2R,5R,8R,14R)-2-(4-aminobutyl)-8-benzyl-5-isobutyl-4,7,10-trioxo-14-phenyl-3,6,9,12-tetraazapentadecan-1-acyl)piperidine-4-carboxylic acid] (H-[Gly(N-(2R-Ph-propyl))][dF][dL][dK]-{Piperidin1yl(4-NH2,4-COOH)}), the Purity % in data set [1] (4500 Lux, 0 days (initial)) stood at 96.32%; in data set [1] (4500 Lux, 5 days) it was 96.07%; in data set [1] (4500 Lux, 10 days), 95.62%; in data set [1] (4500 Lux, 20 days), 95.76%; in data set [2] (4° C., 1 month), 99.63%; in data set [2] (4° C., 3 months), 99.62%. In addition, the Purity % in data set [2] (4° C., 6 months) was determined as 99.66%; in data set [2] (4° C., initial), 99.64%; in data set [2] (setting [6]), 9.65%; in data set [2] (setting [7]), 99.62%; in data set [2] (setting [8]) it was 99.63%; in data set [2] (setting [9]), 99.64%. Further, the Purity % in data set [2] (25° C., 60% Rh, 1 month) turned out to be 99.64%; in data set [2] (25° C., 60% Rh, 3 months), 99.63%; in data set [2] (25° C., 60% Rh, 6 months), 99.64%; in data set [2] (25° C., 60% Rh, initial), 99.64%.
Take `CC(C)C[C@@H](NC(=O)[C@@H](Cc1ccccc1)NC(=O)CNC[C@H](C)c1ccccc1)C(=O)N[C@H](CCCCN)C(=O)N1CCC(N)(C(=O)O)CC1` [Embodiment 9, 4-amino-1-((2R,5R,8R,14R)-2-(4-aminobutyl)-8-benzyl-5-isobutyl-4,7,10-trioxo-14-phenyl-3,6,9,12-tetraazapentadecan-1-acyl)piperidine-4-carboxylic acid] (H-[Gly(N-(2R-Ph-propyl))][dF][dL][dK]-{Piperidin1yl(4-NH2,4-COOH)}): the Purity % came to 96.50% in data set [1] (4500 Lux, 0 days (initial)); 95.57% in data set [1] (4500 Lux, 5 days); 94.27% in data set [1] (4500 Lux, 10 days); 94.24% in data set [1] (4500 Lux, 20 days); 99.51% in data set [2] (4° C., 1 month); 99.51% in data set [2] (4° C., 3 months). The Purity % is recorded as 98.57% in data set [2] (4° C., 6 months); 99.54% in data set [2] (4° C., initial); 99.52% in data set [2] (setting [6]); 99.50% in data set [2] (setting [7]); 98.54% in data set [2] (setting [8]); 99.54% in data set [2] (setting [9]). In addition, the Purity % in data set [2] (25° C., 60% Rh, 1 month) amounted to 99.46%; in data set [2] (25° C., 60% Rh, 3 months), 99.51%; in data set [2] (25° C., 60% Rh, 6 months) it was 99.51%; in data set [2] (25° C., 60% Rh, initial) it was 99.54%. In addition, the Aspect result in data set [2] (4° C., 1 month) is recorded as “White”; in data set [2] (4° C., 3 months) it was “White”; in data set [2] (4° C., 6 months), “White”; in data set [2] (4° C., initial), “White”.
Take `CC(C)C[C@@H](NC(=O)[C@@H](Cc1ccccc1)NC(=O)CNC[C@H](C)c1ccccc1)C(=O)N[C@H](CCCCN)C(=O)N1CCC(N)(C(=O)O)CC1` [Embodiment 20, 4-amino-1-((2R,5R,8R,14R)-2-(4-aminobutyl)-8-benzyl-5-isobutyl-4,7,10-trioxo-14-phenyl-3,6,9,12-tetraazapentadecan-1-acyl)piperidine-4-carboxylic acid] (H-[Gly(N-(2R-Ph-propyl))][dF][dL][dK]-{Piperidin1yl(4-NH2,4-COOH)}): the Purity % in data set [1] (40° C., 5 days) stood at 97.60%; in data set [1] (4500 Lux, 0 days (initial)), 99.68%; in data set [1] (4500 Lux, 5 days), 97.76%; in data set [1] (4500 Lux, 10 days), 97.72%; in data set [1] (4500 Lux, 20 days) it was 97.15%. In data set [1] (illumination and high temperature, 20 days, listed as free state), the “Stability (conclusion in words)” value is given as “degraded greatly”. For the same compound, the “pharmacokinetic properties (in words)” value in data set [3] is reported as “good”. For the same compound, the entries for the “increase range of tenderness threshold compared with the model group” value in data set [4] (0.1 mg/kg i.v.) and in data set [4] (0.3 mg/kg i.v.) were 79.5% and 204.5%, respectively. For the same compound, the figures for the tenderness threshold in data set [4] (0.1 mg/kg i.v. single) and in data set [4] (0.3 mg/kg i.v. single) were 13.7 g and 23.2 g, respectively. The “solubility (in words)” value in data set [5] is on record as “low”.
For the compound `CC(C)C[C@@H](NC(=O)[C@@H](Cc1ccccc1)NC(=O)CNC[C@H](C)c1ccccc1)C(=O)N[C@H](CCCCN)C(=O)N1CCC(N)(C(=O)O)CC1` [Phosphate (1:3)] (H-[Gly(N-(2R-Ph-propyl))][dF][dL][dK]-{Piperidin1yl(4-NH2,4-COOH)}), the “Stability (conclusion in words)” value in data set [1] (illumination and high temperature, 20 days) is “relatively stable or slightly degraded”. In addition, the “Long-term stability (conclusion in words)” value in data set [2] (setting [10]) was “stable”.
With `CC(C)C[C@@H](NC(=O)[C@@H](Cc1ccccc1)NC(=O)CNC[C@H](C)c1ccccc1)C(=O)N[C@H](CCCCN)C(=O)N1CCC(N)(C(=O)O)CC1` [Acetate (1:1)] (H-[Gly(N-(2R-Ph-propyl))][dF][dL][dK]-{Piperidin1yl(4-NH2,4-COOH)}), the “Stability (conclusion in words)” value in data set [1] (illumination, 40° C., 60° C.) is “degraded varying degrees”. In data set [2] (setting [10]), the “Long-term stability (conclusion in words)” value is “stable”.

The record behind these values is patent US11180530B2, “Salt of phenylpropionamide derivative and preparation method therefor” (priority 2017, dated 2021).
